Experimental data published in publication PMC9574929, “Development of Hydrogen Sulfide-Releasing Carbonic Anhydrases IX- and XII-Selective Inhibitors with Enhanced Antihyperalgesic Action in a Rat Model of Arthritis” (Journal of Medicinal Chemistry, 2022).

Key:
[1] = tested on: rat model of arthritis induced by the intra-articular injection of complete Freund's adjuvant (CFA); experiment: Paw pressure test, CFA-induced arthritis; type: in vivo
Protocol: (§1) Articular damage was induced by injection of Complete Freund’s Adjuvant (CFA; Sigma-Aldrich, St Louis, MO, USA), containing 1 mg/mL of heat-killed and dried Mycobacterium tuberculosis in paraffin oil and mannide monooleate, into the tibiotarsal joint.[50] Briefly, the rats were lightly anesthetized with 2% isoflurane, the left leg skin was sterilized with 75% ethyl alcohol, and the lateral malleolus was located by palpation. A 28-gauge needle was then inserted vertically to penetrate the skin and turned distally for insertion into the articular cavity at the gap between the tibiofibular and tarsal bone until a distinct loss of resistance was felt. A volume of 50 μL of CFA was then injected (day 0). Control rats received 50 μL of saline solution (day 0) in the tibiotarsal joint.
(§2) The hybrid derivatives 26, 29, 30, and 31 (1, 10, and 30 mg/kg) were suspended in a 1% solution of carboxymethylcellulose (CMC) sodium salt and acutely per os administered starting from day 14 after CFA i.a. injection, when arthritis was well established. The H2S releaser 3 and CAI 15 were also administered alone or in coadministration at the equimolar dose of compound 30 30 mg/kg (13.23 and 17.71 mg/kg, respectively). The antihypersensitivity effects were evaluated over time by the Paw pressure and Incapacitance tests.
The nociceptive threshold of rats was determined with an analgesimeter (Ugo Basile, Varese, Italy), according to the method described by Leighton et al.[51] and Maresca et al.,[52] (doi: 10.1111/jphp.12828). Briefly, a constantly increasing pressure was applied to a small area of the dorsal surface of the hind paw using a blunt conical probe by a mechanical device. Mechanical pressure was increased until vocalization or a withdrawal reflex occurred while rats were lightly restrained. Vocalization or withdrawal reflex thresholds were expressed in grams. […]

[2] = Spectrophotometric methylene blue H2S release assay in rat liver homogenate; conditions: compound 150 μM, 37 °C
Protocol: The released H2S, trapped by zinc acetate to form zinc sulfide, reacts with N,N-dimethyl-1,4-phenylenediamine in the presence of iron(III) to yield methylene blue, which can be easily quantified by measuring absorbance at 667 nm (MB^+ form) or at 748 nm (MBH^2+).[42],[43] The compound H2S release in different conditions was monitored over time and quantified according to a calibration curve with Na2S (1–300 μM). Incubation of compound 3 and the hybrid derivatives in phosphate buffer at 37 °C either in the presence or absence of thiol compounds (cysteine or glutathione) produced no or a barely detectable H2S release, respectively. […]
Rat liver was homogenized in ice-cold 50 mM potassium phosphate buffer (pH 7.4).[41] Optimal w/v ratios of 1/20 were determined from preliminary experiments (data not shown). […] The released H2S concentration was measured as described previously.[45] […] Baseline H2S concentration was determined in incubates upon addition of trichloroacetic acid directly to the tissue homogenate in absence of the compound. Thus, N,N-dimethyl-p-phenylenediamine sulfate in HCl 5 M (20 mM; 200 μL) and FeCl3 in HCl 1.2 M (30 mM; 200 μL) were added to the mixture, and the absorbance of the formed methylene blue was measured after 30 min at 25 °C at 667 nm using a Varian Cary 300 UV–Visible spectrophotometer. […]

[3] = tested on: rat model of arthritis induced by the intra-articular injection of complete Freund's adjuvant (CFA); experiment: Incapacitance test, CFA-induced arthritis; type: in vivo
Protocol: as §1, §2
Weight-bearing changes were measured using an incapacitance apparatus (Linton Instrumentation, Norfolk, U.K.) to detect changes in postural equilibrium after a hind limb injury.[53],[54] Rats were trained to stand on their hind paws in a box with an inclined plane (65° from horizontal). This box was placed above the incapacitance apparatus. This allowed us to independently measure the weight that the animal applied on each hind limb. The value reported for each animal is the mean of five consecutive measurements. In the absence of hind limb injury, rats applied an equal weight on both hind limbs, indicating postural equilibrium, whereas an unequal distribution of weight on the hind limbs indicated a monolateral decreased pain threshold. Data are expressed as the difference between the weight applied to the limb contralateral to the injury and the weight applied to the ipsilateral limb (Δ weight).

[4] = per os, 3 13.23 mg/kg, 15 17.71 mg/kg

O=C(O)c1ccc(-c2cssc2=S)cc1 [Compound 3, 4-(3-Thioxo-3H-1,2-dithiol-4-yl)benzoic Acid]
time of peak antihyperalgesic effect, Paw pressure test ([1]; after per os administration): 15 min
antihyperalgesic effect, Paw pressure test, dose equimolar to 30 30 mg/kg [1, 4]: rapid antihyperalgesic effect that peaked at 15 min and totally disappeared after 45 min
time at which H2S release peaked / reached a plateau [2]: ~20 min
time of peak of efficacy, Incapacitance test ([3]; after per os treatment): 15 min
antihyperalgesic effect, Incapacitance test, dose equimolar to 30 30 mg/kg [3, 4]: comparable to that of the hybrid analogue 30 at its optimal dose
